From patent US20250171821A1, “HIF-1 ACTIVATORS AND USES THEREOF” (Ramot at Tel-Aviv University Ltd., priority 2022, published 2025)
Entries after “also recorded” stand apart in the source; their conditions may differ.

Tests used:
mice = conditions: after dextran sulfate sodium-induced intestinal fibrosis; cited from earlier work
ischemic anastomoses = conditions: cited from earlier work
MG-63 cells [1] = assay: Alizarin Red S staining of mineralization in MG-63 cells; assay type: cell-based, human
Experimental: (§1) The cultivation of MG-63 was performed in α-MEM growth medium (Sartorius). Osteogenic differentiation was performed by plating 20,000 cells/well into a sterile 24-well plate. Cells were left to adhere for 1 day and then switched to the osteogenic medium consisting of a minimum essential medium alpha (α-MEM) supplemented with 10% heat-inactivated FBS, 2 mM L-glutamine, 100 U/mL penicillin, 100 μg/mL streptomycin, 50 μM ascorbate-2-phosphate, and 10 mM β-glycerophosphate. Medium was changed every 2-3 days together with peptide supplementation. Seven to twenty-eight days after induction of differentiation, the production of extracellular calcified mineral matrix was visualized by Alizarin Red staining (Sigma) and Picrosirius Red (Scytek).
To visualize calcium deposition upon osteogenic differentiation, an Alizarin-red-S (Sigma) stock solution of 40 mM was used. Cells were washed three times with PBS and fixed in 1 mL of 4% PFA for 20 minutes at room temperature (RT). After fixation, cells were rinsed with double distilled water (DDW) and stained for 10 minutes in 1 mL Alizarin-red-S stock solution under continuous rotation. To diminish unspecific staining, cells were washed extensively three times with PBS. Stained samples were stored at 4° C. covered with PBS. […]

MG-63 cells [2] = assay: Picrosirius red staining of collagen fibers in MG-63 cells; assay type: cell-based, human; conditions: 7 days, osteogenic differentiation medium plus peptide
Experimental: as §1
To visualize the extent of ECM formation, Picrosirius red dye was used to stain Collagen-I and Collagen-III. Treated cells were fixed with 4% PFA, washed with PBS and dried at 37° C. or at room temperature (RT) for overnight incubation. Then, the cells were stained with 400 μL of Sirius Red dye (0.1% in saturated picric acid) for 1 hour with mild shaking. The stained cell layers were then extensively washed with 0.01 N HCl to remove all non-bounded dye. After rinsing, photographs were taken under confocal microscope using polarized light.
Evaluation of Collagen fibers in MG-63 cells upon Def16-EPAS1 treatment—To evaluate the variation in Collagen fiber levels between normal MG-63 cells and MG-63 cells treated with the Def16-EPAS1 peptide, cells were supplemented to a 7-day incubation period with osteogenic differentiation medium (which includes 50 μg/mL ascorbic acid and 10 mM β-glycerophosphate), along with the addition of Def16-EPAS1 peptide. Collagen fibers were highlighted/stained by Picro-Sirius Red staining according to the manufacturer's instructions (FIG. 12). The PSR staining allows to clearly distinguish between Collagen-I and III fibers in cell culture. In the evaluation of polarizing colors of collagens fibers, Collagen-I and III were polarized with 488 nm and 647 nm wavelength, respectively, and visualized with the confocal microscope.

Bovine Dermal Fibroblast = assay: Collagen-I immunofluorescence in bovine dermal fibroblasts; assay type: cell-based; conditions: 48 hours
Experimental: For microscopy images, cells were cultured in a 24-well plate and incubated with medium supplemented with the indicated concentrations of the treating entity (e.g., peptides or DFO) at 37° C. under 5% CO2. Cells were then washed additional three times with cold phosphate-buffered saline (PBS), following a 20 minute fixation in a 4% paraformaldehyde (PFA) in PBS and extensively washed three times with PBS to remove the PFA, followed by a 20 minute wash with blocking and penetration solution (PBS with 0.1% Triton X-100 and 2% BSA). Fixed cells were incubated with antibodies for 1 hour at 25° C., washed, and developed together with fluorescence-tagged secondary antibodies (Alexa 488 and 647, Abcam). Cell nuclei were stained with 1 mg/mL 4′,6-diamidino-2-phenylindole (DAPI Staining Solution ab228549, Abcam). Images were taken using a ZEISS LSM 900 in confocal mode, using Zen 3.1. Fluorescence readouts were obtained at ex/em of 358/461, 495/519 nm, and 652/668 nm for blue, green, and red, respectively.
Effect of Def16-EPAS1 on Collagen accumulation in Bovine Dermal Fibroblast—To test HIF mimicking peptide and its effect on Collagen accumulation in additional mammalian cells, the present inventors have examined the effect of the Def16-EPAS1 peptide on Bovine Dermal Fibroblast. […]

Row | Compound | collagen deposition (mice) | levels of collagen (ischemic anastomoses) | deposition of calcium (mineralized nodules) (MG-63 cells [1]; 5 μM or 20 μM peptide, 7 days, osteogenic differentiation medium) | mineralizing matrix formation (Alizarin Red S and Picrosirius Red) (MG-63 cells [1]; 10 μM peptide, 7, 14, 21 and 28 days, differentiation medium) | Collagen-I fibers (MG-63 cells [2]) | Collagen-III fibers (MG-63 cells [2]) | Collagen-I fibers (MG-63 cells [2]; listed as DEF16-EPAS1) | Collagen-III fibers (MG-63 cells [2]; listed as DEF16-EPAS1) | Collagen fibril morphology (Bovine Dermal Fibroblast; higher peptide concentrations) | Collagen-I levels compared to baseline of nontreated cells (Bovine Dermal Fibroblast; peptide concentration above 10 μM)
1 | COC(=O)CNC(=O)C(=O)OC [DMOG] | significant decrease in collagen deposition | increased levels of collagen | – | – | – | – | – | – | – | –
2 | Def16-EPAS1: GRCRGFRRRCFCTTHCELDLETLAPYIPMDGEDFQL (SEQ ID NO: 3): Def16 cell penetrating sequence fused to the EPAS1 peptide (Def16-EPAS1; MOD_RES 1 Can be FITC-labeled; MOD_RES 3 Can be FITC-labeled; MOD_RES 10 Can be FITC-labeled; MOD_RES 12 Can be FITC-labeled; MOD_RES 16..17 Can be FITC-labeled; MOD_RES 19 Can be FITC-labeled; MOD_RES 21 Can be FITC-labeled; MOD_RES 30 Can be FITC-labeled; MOD_RES 32..33 Can be FITC-labeled; MOD_RES 36 Can be FITC-labeled) | – | – | strong induction of deposition of calcium; also recorded: Typical mineralized nodules were observed | form a mineralizing matrix | over-production | over-production | enhanced levels | enhanced levels | thick fibril bundles of Collagen were observed | more than 2 fold
